Assay results published in patent US12065443B2, “Compounds and pharmaceutical compositions thereof for the treatment of diseases” (priority 2017, dated 2024).
Read-outs that look alike come from different tables or passages of the source.

Columns and labels:
[1] = test system: LPS-induced TNFα secretion in monocyte-derived macrophages (MdM); assay: MdM assay: LPS-triggered TNFα (ELISA); type: cell-based, human; details: Homo sapiens, Macrophage, LPS-triggered TNFα inhibition
In short: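 TNFα ELISA read on supernatants harvested 20 h after LPS (final 200 ng/mL) stimulation. Cells were day-10 macrophages derived from human blood CD14+ monocytes, exposed to 3-fold compound dilutions for 1 h at 37 °C beforehand, with DMSO held at 0.2%.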

[2] = test system: LPS driven TNFα secretion in Peripheral Blood Mononuclear Cells (PBMC); assay: cells; type: cell-based; details: Homo sapiens, LPS 1 ng/mL, supernatant after 18-20 h, ELISA
Protocol: This assay measures the inhibition of LPS driven TNFα secretion by a test compound in Peripheral Blood Mononuclear Cells (PBMC), which in turn correlates with SIK inhibition.
PBMCs are isolated from human blood samples (buffy coats). The buffy coat is aseptically transferred into a 50 mL Falcon™ tube, and diluted 1/2 in Phosphate Buffered Saline (PBS). […] The tubes are centrifuged for 35 min at 400× g in temperature controlled centrifuge, without brake, at 25° C. PBMCs are aspirated from the white interface layer between sample and Lymphoprep. PBMCs are washed five times in PBS. […] The PBMCs are finally seeded at 400,000 PBMC/160 μL/96-well.
A compound dilution plate is made in 100% DMSO by 3-fold dilution of 10 mM stock solution of test compound. An intermediate dilution plate (10× final concentration) is made by diluting the compound dilution plate 50-fold in RPMI medium.
20 μL of the 10× final concentration compound is added to the cells and incubated for 1 hour at 37° C. before addition of trigger. No trigger conditions/trigger conditions are spiked with equal final DMSO concentrations of 0.2% DMSO. 20 μL of 10×LPS (final concentration 1 ng/mL) solution are added to all wells except for the ‘no trigger wells’ where 20 μL medium is added. Supernatant is collected after 18-20 h for IL-10 and TNFα determination using ELISA.
The plate is then washed once with PBST (PBS+0.05% Tween20) and once with PBS followed by the addition of 100 μL of blocking buffer (1% Bovine Serum Albumin (BSA)-5% Sucrose) and plates are sealed and incubated for at least 4 h at RT. After washing the plate once with PBST and once with PBS, 40 μL of standard or sample are added (TNFα standard curve is prepared using a 1/2 serial dilution starting from 16000 pg/mL; dilutions are made in dilution buffer (PBS+1% BSA)). Plates are washed twice with PBST, and once with PBS, after which 35 μL of the detection antibody is added (final concentration 0.25 μg/mL diluted in dilution buffer) and plates are incubated for at least 2 h at RT. Plates are washed twice with PBST, and once with PBS, where after 35 μL of Strep-HRP conjugate (0.5 μg/mL final concentration diluted in dilution buffer) is added. Plates are incubated in the dark, at RT for at least 45 min but no longer than 1 hour. Plates are washed twice with PBST, and once with PBS. Thereafter, 50 μL of luminol substrate is added to each well (prepared according to manufacturer's instructions), and incubated for 5 min at RT protected from light.
To measure the inhibition of LPS induced TNFα, percentage inhibition (PIN) values are calculated for all concentrations tested, compared to controls.
PIN values are plotted in concentration-response and EC50 values are derived using GraphPad Prism Software, applying 4-parameter nonlinear regression (sigmoidal) curve fitting.

SIK2 [3] = target: T1, SIK2 (Homo sapiens, UniProt Q9H0K1); assay: biochemical; details: 33P radioactive SIK kinase assay, AMARA peptide, 10 μM ATP
T1 construct: purchased ThermoFisher Scientific PV4792
In short: (§1)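 Radiometric assay: SIK1, SIK2 or SIK3 phosphorylates AMARA peptide using unlabelled plus [^33P]-γ-ATP, reaction started by ATP addition. Stopped with 150 mM phosphoric acid, filter-harvested and washed; incorporated ^33P counted by scintillation. Controls: 1% DMSO and 10 μM staurosporine final.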

SIK3 [4] = target: T2, SIK3 (Homo sapiens, UniProt Q9Y2K2); assay: biochemical
T2 construct: purchased SignalChem S12-11G-100
In short: as §1

SIK1 [5] = target: T3, SIK1 (Homo sapiens, UniProt P57059); assay: biochemical; details: 33P radioactive SIK kinase assay, AMARA peptide, 10 μM ATP; read-out: SIK1 IC50
T3 construct: purchased Carna Biosciences 02-131
In short: as §1

SIK2 [6] = target: T1, SIK2; assay: biochemical; details: ADP-Glo SIK kinase assay
In short: (§2)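 ADP-Glo luminescent assay of ADP formed by SIK2 or SIK3 with substrate after ATP addition, 120 min at RT. Remaining ATP depleted 40 min, then ADP converted to ATP and read by luciferase luminescence after 30 min. Controls: 1% DMSO and 10 μM staurosporine (final).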

SIK3 [7] = target: T2, SIK3; assay: biochemical; details: ADP-Glo SIK kinase assay
In short: as §2

SIK1 [8] = target: T3, SIK1; assay: biochemical; details: ADP-Glo SIK kinase assay
In short: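 Enzyme–substrate mix was started with ATP and incubated 120 min at RT. ADP formed was quantified by ADP-Glo: 40 min ATP depletion, then 30 min detection reagent converting ADP to ATP for luciferase luminescence, which rises with kinase activity. Controls: 1% DMSO and 10 μM staurosporine (final).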

[9] = test system: LPS triggered IL-10 secretion in monocyte-derived macrophages (MdM); assay: MdM assay: LPS-triggered IL-10 (ELISA); type: cell-based, human; details: maximal fold change vs LPS only, median across assays
In short: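 Readout is IL-10FCmax, the median across at least two runs of the highest fold change over LPS-only, from ELISA absorbance at 450 nm of 2 h supernatants. Macrophages came from day-10 cultures of human CD14+ monocytes, were given compound for 1 h at 37° C in 0.2% DMSO, then 200 ng/mL LPS.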

T3 sequence (P57059 whole entry): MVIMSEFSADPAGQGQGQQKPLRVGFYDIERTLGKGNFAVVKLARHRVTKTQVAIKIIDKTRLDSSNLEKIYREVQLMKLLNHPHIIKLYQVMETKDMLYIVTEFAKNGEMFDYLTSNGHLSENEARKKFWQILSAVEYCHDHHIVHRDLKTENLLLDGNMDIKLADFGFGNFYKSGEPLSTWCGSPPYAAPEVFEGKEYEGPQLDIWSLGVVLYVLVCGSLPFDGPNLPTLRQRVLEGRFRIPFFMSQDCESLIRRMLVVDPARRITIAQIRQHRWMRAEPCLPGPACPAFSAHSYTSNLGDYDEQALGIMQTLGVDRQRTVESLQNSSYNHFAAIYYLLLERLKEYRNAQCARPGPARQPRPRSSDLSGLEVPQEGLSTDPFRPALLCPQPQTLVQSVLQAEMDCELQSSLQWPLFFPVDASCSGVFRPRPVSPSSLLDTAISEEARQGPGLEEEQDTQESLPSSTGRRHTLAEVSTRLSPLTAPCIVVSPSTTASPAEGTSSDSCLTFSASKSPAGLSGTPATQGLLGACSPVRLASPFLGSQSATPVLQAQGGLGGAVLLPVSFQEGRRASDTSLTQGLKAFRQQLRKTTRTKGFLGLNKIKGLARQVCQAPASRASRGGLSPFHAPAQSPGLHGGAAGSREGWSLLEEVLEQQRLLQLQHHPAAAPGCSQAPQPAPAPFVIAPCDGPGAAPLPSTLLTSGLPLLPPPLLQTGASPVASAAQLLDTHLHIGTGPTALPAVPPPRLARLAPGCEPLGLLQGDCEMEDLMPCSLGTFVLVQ
T2 sequence (Q9Y2K2 whole entry): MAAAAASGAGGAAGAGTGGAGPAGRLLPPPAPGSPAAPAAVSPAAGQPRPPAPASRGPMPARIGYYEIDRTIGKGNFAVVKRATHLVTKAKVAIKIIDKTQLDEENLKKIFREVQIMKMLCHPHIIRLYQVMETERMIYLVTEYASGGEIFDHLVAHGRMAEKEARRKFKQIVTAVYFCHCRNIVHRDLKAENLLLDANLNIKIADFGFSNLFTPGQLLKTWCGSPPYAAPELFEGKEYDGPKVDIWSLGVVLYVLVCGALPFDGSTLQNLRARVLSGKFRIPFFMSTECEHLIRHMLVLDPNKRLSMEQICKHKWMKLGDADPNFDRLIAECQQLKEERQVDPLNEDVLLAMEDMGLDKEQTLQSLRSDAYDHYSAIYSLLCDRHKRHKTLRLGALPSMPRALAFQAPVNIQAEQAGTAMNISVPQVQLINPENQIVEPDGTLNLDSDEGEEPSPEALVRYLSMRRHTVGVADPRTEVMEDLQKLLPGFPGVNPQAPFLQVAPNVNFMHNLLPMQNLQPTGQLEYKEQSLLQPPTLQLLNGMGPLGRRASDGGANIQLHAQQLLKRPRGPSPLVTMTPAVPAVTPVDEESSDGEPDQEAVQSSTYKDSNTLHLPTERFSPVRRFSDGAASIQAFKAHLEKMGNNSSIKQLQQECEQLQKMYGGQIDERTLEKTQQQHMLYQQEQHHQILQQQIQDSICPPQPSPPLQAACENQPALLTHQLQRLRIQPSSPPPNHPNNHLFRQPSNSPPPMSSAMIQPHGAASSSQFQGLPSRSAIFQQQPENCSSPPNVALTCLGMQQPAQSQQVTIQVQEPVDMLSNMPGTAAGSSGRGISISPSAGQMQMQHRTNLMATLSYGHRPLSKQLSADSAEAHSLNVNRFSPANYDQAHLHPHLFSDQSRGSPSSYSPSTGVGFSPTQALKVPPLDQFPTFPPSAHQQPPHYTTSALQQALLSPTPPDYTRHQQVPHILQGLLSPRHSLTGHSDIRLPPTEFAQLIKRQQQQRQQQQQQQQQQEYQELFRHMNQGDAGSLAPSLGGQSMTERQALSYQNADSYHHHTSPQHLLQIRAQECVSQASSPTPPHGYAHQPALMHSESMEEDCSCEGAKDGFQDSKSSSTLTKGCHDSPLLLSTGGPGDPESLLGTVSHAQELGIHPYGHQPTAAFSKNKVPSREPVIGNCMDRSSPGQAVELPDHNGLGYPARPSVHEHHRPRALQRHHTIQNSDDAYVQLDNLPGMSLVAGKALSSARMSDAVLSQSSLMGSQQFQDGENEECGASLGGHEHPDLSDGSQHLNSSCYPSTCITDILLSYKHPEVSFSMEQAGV
T1 sequence (Q9H0K1 whole entry): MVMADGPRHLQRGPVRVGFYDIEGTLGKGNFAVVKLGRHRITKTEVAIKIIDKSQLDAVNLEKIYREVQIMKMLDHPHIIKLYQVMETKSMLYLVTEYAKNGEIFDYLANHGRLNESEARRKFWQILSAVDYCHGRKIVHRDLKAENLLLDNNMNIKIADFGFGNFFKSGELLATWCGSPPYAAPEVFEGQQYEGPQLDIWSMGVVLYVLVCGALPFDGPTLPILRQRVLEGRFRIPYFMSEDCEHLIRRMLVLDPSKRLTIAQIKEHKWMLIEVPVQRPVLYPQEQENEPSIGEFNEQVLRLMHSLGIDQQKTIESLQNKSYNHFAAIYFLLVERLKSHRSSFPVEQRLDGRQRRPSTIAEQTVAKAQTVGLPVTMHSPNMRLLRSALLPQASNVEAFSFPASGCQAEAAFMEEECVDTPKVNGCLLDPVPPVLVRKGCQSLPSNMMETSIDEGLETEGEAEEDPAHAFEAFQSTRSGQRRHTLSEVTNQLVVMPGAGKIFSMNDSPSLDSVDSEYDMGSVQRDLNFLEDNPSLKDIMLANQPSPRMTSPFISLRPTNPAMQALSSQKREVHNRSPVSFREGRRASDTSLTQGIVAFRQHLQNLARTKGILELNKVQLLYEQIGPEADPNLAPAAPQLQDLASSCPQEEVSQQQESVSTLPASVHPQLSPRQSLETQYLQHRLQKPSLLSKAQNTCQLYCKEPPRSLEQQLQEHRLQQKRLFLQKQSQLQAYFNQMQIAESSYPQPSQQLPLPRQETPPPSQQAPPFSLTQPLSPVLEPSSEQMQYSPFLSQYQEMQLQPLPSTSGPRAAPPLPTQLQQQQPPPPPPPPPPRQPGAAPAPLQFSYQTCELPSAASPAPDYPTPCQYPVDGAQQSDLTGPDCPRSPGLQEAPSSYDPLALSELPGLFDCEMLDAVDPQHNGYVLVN

EC50 [1]	IC50 (SIK2 [3])	IC50 (SIK3 [4])	IC50 (SIK1 [5])	IC50 (SIK2 [6])	IC50 (SIK3 [7])	IC50 (SIK1 [8])	Compound	EC50 [2]	IL-10 FCmax median [9]
0.1 to 100 nM	0.01 to 10 nM	0.01 to 10 nM	10 to 100 nM	0.01 to 10 nM	0.01 to 10 nM	0.01 to 10 nM	COc1cc(-n2cnc3cc(-c4cnn(C5CN(C)C5)c4)ccc32)cc(OC)c1C(=O)NCC(F)(F)F [Cpd 98, 2,6-dimethoxy-4-[5-[1-(1-methylazetidin-3-yl)pyrazol-4-yl]benzimidazol-1-yl]-N-(2,2,2-trifluoroethyl)benzamide]	0.1 to 100 nM	++ (>1.5-4.5)
0.1 to 100 nM	0.01 to 10 nM	0.01 to 10 nM	10 to 100 nM	0.01 to 10 nM	0.01 to 10 nM	0.01 to 10 nM	COc1cc(-c2cnc3cc(-c4cnn(C)c4)ccn23)cc(OC)c1C(=O)N1CC(F)(F)C1 [Cpd 173, (3,3-difluoroazetidin-1-yl)-[2,6-dimethoxy-4-[7-(1-methylpyrazol-4-yl)imidazo[1,2-a]pyridin-3-yl]phenyl]methanone]	0.1 to 100 nM	++ (>1.5-4.5)
0.1 to 100 nM	0.01 to 10 nM	0.01 to 10 nM	0.01 to 10 nM	0.01 to 10 nM	0.01 to 10 nM	0.01 to 10 nM	COc1cc(-c2cnc3cc(-c4cnn(C)c4)ccn23)cc(OC)c1C(=O)N[C@H](C)C(F)(F)F [Cpd 174, 2,6-dimethoxy-4-[7-(1-methylpyrazol-4-yl)imidazo[1,2-a]pyridin-3-yl]-N-[(1R)-2,2,2-trifluoro-1-methyl-ethyl]benzamide]	0.1 to 100 nM	++ (>1.5-4.5)
100 to 1000 nM	10 to 100 nM	0.01 to 10 nM	10 to 100 nM	0.01 to 10 nM	0.01 to 10 nM	10 to 100 nM	COc1cc(-n2cnc3cc(-c4ccnc(N5CCN(C)CC5)c4)ccc32)cc(OC)c1C(=O)NCC(F)(F)F [compound 120, 2,6-dimethoxy-4-[5-[2-(4-methylpiperazin-1-yl)-4-pyridyl]benzimidazol-1-yl]-N-(2,2,2-trifluoroethyl)benzamide]	0.1 to 100 nM	++ (>1.5-4.5)
